Measured values as given in US11746136B2, “Composition and methods for disruption of bacterial biofilms without accompanying inflammation” (Research Institute at Nationwide Children's Hospital, priority 2017, dated 2023).

B1: HMGB1: HMGB1 added to UPEC UTI89 biofilm; probably the recombinant human HMGB1 (rHMGB1) (protein, UniProt P09429 1-215, looked up)
High mobility group protein B1: MGKGDPKKPRGKMSSYAFFVQTCREEHKKKHPDASVNFSEFSKKCSERWKTMSAKEKGKFEDMAKADKARYEREMKTYIPPKGETKKKFKDPNAPKRPPSAFFLFCSEYRPKIKGEHPGLSIGDVAKKLGEMWNNTAADDKQPYEKKAAKLKEKYEKDIAAYRAKGKPDAAKKGVVKAEKSKKKKEEEEDEEDEEDEEEEEDEEDEDEEEDDDDE

Assays:
[1] = tested on: Staphylococcus aureus; assay: Anti-biofilm effect on in vitro preformed 24-hour biofilm (CLSM, COMSTAT); format: cell-based; set-up: key: ↓: 20-30% decrease; ↓↓: 31-50% decrease; ↓↓↓: >51% decrease; ↔: No change; details: 5 μg/ml added at 24h to preformed biofilm, 16 h incubation; decrease vs control
Description: (§1) To determine the antibiofilm function of the variant HMGB1 (mHMGB1 (C45S)), Applicants expressed and purified human recombinant HMGB1 (rHMGB1) and recombinant variant HMGB1 (mHMGB1 (C45S)) in E. coli. In vitro preformed 24-hour biofilms formed by multiple human pathogens as indicated in Table 1 were incubated with 5 μg/ml rHMGB1 or mHMGB1 (C45S) for 16 hours. Enterococcus faecium biofilms were incubated with 20 μg/ml rHMGB1 or mHMGB1 (C45S) for 16 hours. Biofilms were washed and stained with LIVE/DEAD® stain and analyzed using a confocal laser scanning microscope and COMSTAT analysis. Applicants observed that mHMGB1 (C45S) was effective at disrupting each of the in vitro preformed biofilms as indicated by significant reduction in average thickness and biomass compared to the control (Table 1).
(§2) HMGB1 isoforms (5 μg/ml) were added at 24h to in vitro preformed bacterial biofilms. After 16 h of incubation (40h total), biofilms were washed and stained with LIVE/DEAD® followed by visualization using CLSM. Biofilms were analyzed by Comstat to calculate average thickness^a (AT) and biomass^a (BM).

[2] = tested on: Acinetobacter baumanii; assay: as above; format: cell-based; details: 5 μg/ml added at 24h to preformed biofilm, 16 h incubation; decrease vs control
Description: as §1, §2

[3] = tested on: Aggregatibacter actinomycetemcomitans; assay: as above; format: cell-based; details: 5 μg/ml added at 24h to preformed biofilm, 16 h incubation; decrease vs control
Description: as §1, §2

[4] = tested on: Burkholderia cenocepacia; assay: as above; format: cell-based; details: 5 μg/ml added at 24h to preformed biofilm, 16 h incubation; decrease vs control
Description: as §1, §2

[5] = tested on: Enterobacter spp.; assay: as above; format: cell-based; details: 5 μg/ml added at 24h to preformed biofilm, 16 h incubation; decrease vs control
Description: as §1, §2

[6] = tested on: Enterococcus faecium; assay: as above; format: cell-based; details: 20 μg/ml added at 24h to preformed biofilm, 16 h incubation; decrease vs control
Description: as §1, §2

[7] = tested on: Klebsiella pneumoniae; assay: as above; format: cell-based; details: 5 μg/ml added at 24h to preformed biofilm, 16 h incubation; decrease vs control
Description: as §1, §2

[8] = tested on: Nontypeable Haemophilus influenzae; assay: as above; format: cell-based; details: 5 μg/ml added at 24h to preformed biofilm, 16 h incubation; decrease vs control
Description: as §1, §2

[9] = tested on: Pseudomonas aeruginosa; assay: as above; format: cell-based; details: 5 μg/ml added at 24h to preformed biofilm, 16 h incubation; decrease vs control
Description: as §1, §2

[10] = tested on: Uropathogenic E. coli; assay: as above; format: cell-based; details: 5 μg/ml added at 24h to preformed biofilm, 16 h incubation; decrease vs control
Description: as §1, §2

[11] = tested on: NTHI strain 86-028NP biofilms; assay: Chinchilla model of experimental otitis media, clearance of preformed NTHI biofilms; format: in vivo; details: 4-day old NTHI biofilm, two doses (day 4 and 5; 5 μg each) into middle ear, scored day 6, vs diluent
Description: Diluent, 5 μg rHMGB1, or 5 mHMGB1 (C45S) were delivered directly to the middle ears of chinchillas at 4 and 5 days post infection with NTHI. Animals were sacrificed 24 h later and their middle ears were imaged (FIG. 1A) and blindly scored (FIG. 1B) based on the criteria described in the bottom of FIG. 1A. Bars represent SEM. ***P<0.001.
Diluent or 5 μg rHMGB1 or mHMGB1 (C45 S) were delivered directly to middle ears of chinchillas at 4 and 5 days post infection with NTHI. Animals were sacrificed 24 h later, and their middle ears were imaged (FIG. 6A) and blindly scored (FIG. 6B) based on the criteria described in the bottom of (FIG. 6A). Bars represent SEM. ***P<0.001.
To determine the antibiofilm function of mHMGB1 (C45S) in vivo, Applicants employed two distinct animal models. In the first model Applicants tested the ability of rHMGB1 and mHMGB1 (C45S) to clear preformed NTHI biofilms in Applicants' well-established chinchilla model of experimental OM (Novotny et al. 2011; 2013b; Novotny et al. 2016). Applicants first established NTHI strain 86-028NP biofilms in the chinchilla middle ear for 4 days. […] On day 6 the animals were sacrificed and the middle ears were blindly scored for the presence of any remaining biofilm. […] After 4h, mice were sacrificed and total neutrophils were quantified in peritoneal lavage.

[12] = tested on: Burkholderia cenocepacia; format: in vivo, C57BL/6 mice; details: for bacterial burden (CFUs) in BAL: 10^7 CFU intratracheally, 5 μg added simultaneously, after 18 hours, vs control
Description: C57BL/6 mice were infected with 10^7 CFU i.t., and simultaneously received rHMGB1 or mHMGB1 (C45S). After 18 h, (FIG. 2A) B. cenocepacia CFUs were quantified in BAL, (FIG. 2B) total host cells infiltrating into the lung were enumerated in BAL, and (FIG. 2C) BAL cells were stained with anti CD45, CD11b and Ly-6G to measure neutrophil migration. Bars represent standard deviation. *P<0.05; **P<0.005. (FIG. 2D) Lungs were collected 72 hpi. Tissue was fixed and embedded in paraffin, sectioned and stained with H&E. All panels show a magnification of 10×.
C57BL/6 mice were infected with 10^7 CFU i.t., and simultaneously received […] rHMGB1 or mHMGB1 (C45 S). (FIG. 7A) Aggregates of B. cenocepacia were visible by fluorescence microscopy in sections probed with an α-B. cenocepacia antibody. After 18 h, (FIG. 7B) CFUs were quantified in BAL, and (FIG. 7C) BAL cells were stained with α-CD45, CD11b, and Ly-6G to measure neutrophil migration. Bars represent SD. *P<0.05.
To determine the antibiofilm function of mHMGB1 (C45S) in vivo, Applicants employed two distinct animal models. In the first model Applicants tested the ability of rHMGB1 and mHMGB1 (C45S) to clear preformed NTHI biofilms in Applicants' well-established chinchilla model of experimental OM (Novotny et al. 2011; 2013b; Novotny et al. 2016). Applicants first established NTHI strain 86-028NP biofilms in the chinchilla middle ear for 4 days. Applicants then treated the 4-day old NTHI biofilm with two doses (day 4 and 5; 5 μg each) of rHMGB1, mHMGB1 (C45S) or diluent. On day 6 the animals were sacrificed and the middle ears were blindly scored for the presence of any remaining biofilm. […] In the second model, Applicants tested the ability of rHMGB1 and mHMGB1 (C45S) to inhibit biofilm development of Burkholderia cenocepacia in the murine airways. C57BL/6 mice were infected with 10^7 CFU of B. cenocepacia intratracheally and 5 μg of rHMGB1 or mHMGB1 (C45S) was added simultaneously. After 18 hours, the animals were sacrificed and bronchoalveolar lavage (BAL) and lungs were collected. […] Lastly, Applicants validated the inflammatory activity of rHMGB1 and mHMGB1 (C45S) in an in vivo chemotaxis model to determine the ability to recruit neutrophils (Orlova et al. 2007; Penzo et al. 2010). C57BL/6 mice were injected with 5 μg of either mHMGB1 (C45S) or rHMGB1 or 1 ml of 4% thioglycollate. After 4h, mice were sacrificed and total neutrophils were quantified in peritoneal lavage.

[13] = tested on: branched DNA structures; assay: Affinity to branched DNA structures; format: binding; details: effect of the C45S mutation
[14] = Consequences of bacterial dispersal from biofilm in vivo (second site infections, sepsis)
Source text: Also, this dispersal effect could result in sepsis.

[15] = tested on: Uropathogenic E. coli UTI89; assay: HMGB1 added at seeding and at 24h to UPEC biofilm; format: cell-based; details: 0.1, 1 and 5 μg/ml added at seeding and at 24h
Description: Applicants added HMGB1 at 0.1, 1 and 5 μg/ml at seeding and at 24h to a biofilm formed by Uropathogenic E. coli UTI89. […] Based on this information, Applicants hereby disclose a method for inhibiting, competing or titrating the binding of a deoxyribonucleic acid B II (DNABII) polypeptide to a microbial DNA in a biofilm, comprising, or alternatively consisting essentially of, or yet further consisting of, contacting the microbial DNA in the biofilm with an effective amount of an isolated or recombinant polypeptide comprising a modified high mobility group-box 1 domain (mHMGB1) comprising a C45S substitution thereby inhibiting, competing or titrating the binding of the DNABII polypeptide to the microbial DNA. The contacting can be accomplished in vitro or in vivo. Non-limiting examples of organisms that promote our cause the biofilm include one or more of Burkholderia cenocepacia, Enterobacter spp., Staphylococcus aureus, Klebsiella pneumoniae, Acinetobacter baumanii, Pseudomonas aeruginosa, Enterococcus faecium, Uropathogenic Escherichia coli (UPEC), Non-typeable Haemophilus influenzae (NTHI), and/or Aggregatibacter actinomycetemcomitans.

Molecule	average thickness (AT) [1]	biomass (BM) [1]	average thickness (AT) [2]	biomass (BM) [2]	average thickness (AT) [3]	biomass (BM) [3]	average thickness (AT) [4]	biomass (BM) [4]	average thickness (AT) [5]	biomass (BM) [5]	average thickness (AT) [6]	biomass (BM) [6]	average thickness (AT) [7]	biomass (BM) [7]	average thickness (AT) [8]	biomass (BM) [8]	average thickness (AT) [9]	biomass (BM) [9]	average thickness (AT) [10]	biomass (BM) [10]	also measured
rHMGB1: recombinant HMGB1 derived from a human, expressed and purified in E. coli, used as comparator to mHMGB1 (C45S) [reference compound]	↔	↔	↓↓↓ (>51% decrease)	↓↓ (31-50% decrease)	↓ (20-30% decrease)	↓ (20-30% decrease)	↓↓↓ (>51% decrease)	↓↓↓ (>51% decrease)	↓↓↓ (>51% decrease)	↓↓↓ (>51% decrease)	↓↓↓ (>51% decrease)	↓↓↓ (>51% decrease)	↓↓↓ (>51% decrease)	↓↓↓ (>51% decrease)	↓ (20-30% decrease)	↓ (20-30% decrease)	↓↓↓ (>51% decrease)	↓↓↓ (>51% decrease)	↓↓ (31-50% decrease)	↓↓ (31-50% decrease)	clearing of biofilm from the middle ear (blindly scored) [11]: very effective at clearing the biofilms from the middle ear; bacterial burden (CFUs) in BAL [12]: effective at reducing the bacterial burden in BAL; lung damage (H&E) ([12]; mouse, in vivo): severe inflammation and increased neutrophil response
mHMGB1 (C45S): variant human HMGB1 with the cysteine at position 45 substituted with serine, expressed in E. coli (MGKGDPKKPRGKMSSYAFFVQTCREEHKKKHPDASVNFSEFSKKSSERWK)	↓↓↓ (>51% decrease)	↓↓↓ (>51% decrease)	↓↓↓ (>51% decrease)	↓↓↓ (>51% decrease)	↓ (20-30% decrease)	↓ (20-30% decrease)	↓↓↓ (>51% decrease)	↓↓↓ (>51% decrease)	↓↓↓ (>51% decrease)	↓↓↓ (>51% decrease)	↓↓ (31-50% decrease)	↓↓ (31-50% decrease)	↓↓↓ (>51% decrease)	↓↓↓ (>51% decrease)	↓ (20-30% decrease)	↓ (20-30% decrease)	↓↓↓ (>51% decrease)	↓↓↓ (>51% decrease)	↓↓↓ (>51% decrease)	↓↓↓ (>51% decrease)	clearing of biofilm from the middle ear (blindly scored) [11]: very effective at clearing the biofilms from the middle ear; B. cenocepacia CFUs in BAL compared to rHMGB1 ([12]; 10^7 CFU i.t., simultaneous treatment, after 18 h, compared to rHMGB1): significant decreases; bacterial burden (CFUs) in BAL [12]: effective at reducing the bacterial burden in BAL; inflammatory cell infiltration compared to rHMGB1 ([12]; mouse, in vivo): significant decreases; lung damage (H&E) ([12]; mouse, in vivo): more resembled uninfected mouse lungs; affinity to branched DNA structures [13]: increases the affinity of the molecule to branched DNA structures; second site infections or sepsis after dispersal of bacteria from biofilm [14]: None of these consequences has been observed
B1	–	–	–	–	–	–	–	–	–	–	–	–	–	–	–	–	–	–	–	–	disruption of UPEC biofilms [15]: dose-dependent disruption of UPEC biofilms
